From patent publication US6706663B2, “Herbicidal 3-heterocyclic substituted benzisothiazole and benzisoxazole compounds” (Wyeth, priority 2000, dated 2004)

What was measured:
[1] = tested on: SAGPY (Sagittaria pygmaea); experiment: Flooded paddy, preemergence weed control; assay type: in vivo, L.; conditions: rated 3-4 weeks after treatment, 0-9 rating scale
Outline: (§1)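 Scoring used a 0-9 visual scale relative to control. Before that, seeds or propagules were planted shallowly in silt loam and flooded to 1.5–3 cm, a depth maintained throughout, with greenhouse care during the test.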

ORYSAT (Rice, Tebonnet) [2] = experiment: Flooded paddy, post-transplant rice tolerance; assay type: in vivo, Oryza sativa, (L.) Tebonnet; conditions: flooded paddy, post-transplant rice, rated 3-4 weeks after treatment, 0-9 rating scale
Outline: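 Scores (0-9) reflect visual injury relative to untreated plants in flooded silt loam. Each pot held two transplanted ten-day-old seedlings under 1.5 to 3 cm standing water in the greenhouse.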

[3] = tested on: ABUTH (Abutilon theophrasti); experiment: Preemergence herbicidal evaluation; assay type: in vivo, Medic.; conditions: preemergence, rated 4-5 weeks after treatment
[4] = tested on: TRZAWR (Wheat, Winter, cv Riband); experiment: Postemergence herbicidal evaluation; assay type: in vivo, Triticum aestivum
Outline: (§2)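 Visual 0–9 injury scores versus control plants, covering stand, vigour, malformation, size, chlorosis and general appearance, taken four to five weeks post-spray and averaged over replicate tests. Plants were sprayed at roughly two weeks old and held on greenhouse benches.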

[5] = tested on: ECHORC (Echinochloa oryzoides); experiment: Flooded paddy, preemergence weed control; assay type: in vivo, Echinochloa oryzoides (Ard.) Fritsch.; conditions: rated 3-4 weeks after treatment, 0-9 rating scale
Outline: as §1

[6] = tested on: ECHCG (Echinochloa crus-galli); experiment: Postemergence herbicidal evaluation; assay type: in vivo, (L.) Beau
Outline: as §2

[7] = tested on: IPOHE (Ipomoea hederacea); experiment: Postemergence herbicidal evaluation; assay type: in vivo, (L.) Jacq.
Outline: as §2

[8] = tested on: CHEAL (Chenopodium album); experiment: Preemergence herbicidal evaluation; assay type: in vivo, L.; conditions: preemergence, rated 4-5 weeks after treatment
Outline: (§3)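 Rating 0–9, visual, vs control; 4–5 wk after spraying seeded cups with compound in aq. acetone; conventional greenhouse care.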

[9] = tested on: CASOB (Cassia obtusifolia); experiment: Preemergence herbicidal evaluation; assay type: in vivo, L.; conditions: preemergence, rated 4-5 weeks after treatment
Outline: as §3

[10] = tested on: AMBEL (Ambrosia artemisifolia); experiment: Preemergence herbicidal evaluation; assay type: in vivo, L.; conditions: preemergence, rated 4-5 weeks after treatment
Outline: as §3

[11] = tested on: CHEAL (Chenopodium album); experiment: Postemergence herbicidal evaluation; assay type: in vivo, L.
Outline: as §2

[12] = tested on: CASOB (Cassia obtusifolia); experiment: Postemergence herbicidal evaluation; assay type: in vivo, L.
Outline: as §2

[13] = tested on: AMBEL (Ambrosia artemisifolia); experiment: Postemergence herbicidal evaluation; assay type: in vivo, L.
Outline: as §2

ZEAMX (Corn, Field) = experiment: Postemergence herbicidal evaluation; assay type: in vivo, Zea mays, L.
Outline: as §2

ORYSAT (Rice, Tebonnet) [14] = experiment: Preemergence herbicidal evaluation; assay type: in vivo, Oryza sativa, (L.) Tebonnet; conditions: preemergence, rated 4-5 weeks after treatment
[15] = tested on: CYPSE (Cyperus serotinus); experiment: Flooded paddy, preemergence weed control; assay type: in vivo, Rottb.; conditions: rated 3-4 weeks after treatment, 0-9 rating scale
Outline: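 Seeds or propagules were planted 0.5 cm deep in silt loam and flooded to 1.5–3 cm. Compounds in 50/50 v/v aqueous/acetone were pipetted into the flood water at about 0.0080 to 0.1250 kg/ha. After 3–4 weeks in the greenhouse, effect was rated visually on a 0–9 scale versus untreated control.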

[16] = tested on: TRZAWR (Wheat, Winter, cv Riband); experiment: Preemergence herbicidal evaluation; assay type: in vivo, Triticum aestivum; conditions: preemergence, rated 4-5 weeks after treatment
Outline: as §3

[17] = tested on: ABUTH (Abutilon theophrasti); experiment: Postemergence herbicidal evaluation; assay type: in vivo, Medic.
Outline: as §2

ORYSAT (Rice, Tebonnet) [18] = experiment: Postemergence herbicidal evaluation; assay type: in vivo, Oryza sativa, (L.) Tebonnet
Outline: as §2

Cc1ccc(-c2nsc3ccc(-n4c(=O)cc(C(F)(F)F)n(C)c4=O)cc23)s1 [Compound 21, 1-methyl-3-[3-(5-methyl-2-thienyl)-1,2-benzisothiazol-5-yl]-6-(trifluoromethyl)uracil]
herbicidal rating, SAGPY ([1]; rate 0.0080 kg/ha): 0.0
herbicidal rating, SAGPY ([1]; rate 0.0320 kg/ha): 0.0
herbicidal rating, SAGPY ([1]; rate 0.1250 kg/ha): 6.0
herbicidal rating, ORYSAT (rice tolerance) (ORYSAT (Rice, Tebonnet) [2]; rate 0.0080 kg/ha): 0.0
herbicidal rating, ORYSAT (rice tolerance) (ORYSAT (Rice, Tebonnet) [2]; rate 0.0320 kg/ha): 2.0
herbicidal rating, ORYSAT (rice tolerance) (ORYSAT (Rice, Tebonnet) [2]; rate 0.1250 kg/ha): 3.0
ABUTH preemergence herbicidal rating ([3]; Rate 0.0620 kg/ha): 4.0
ABUTH preemergence herbicidal rating ([3]; Rate 0.1250 kg/ha): 7.5
ABUTH preemergence herbicidal rating ([3]; Rate 0.2500 kg/ha): 9.0
Postemergence herbicidal rating, TRZAWR ([4]; rate 0.0320 kg/ha): 4.0
Postemergence herbicidal rating, TRZAWR ([4]; rate 0.0620 kg/ha): 4.5
Postemergence herbicidal rating, TRZAWR ([4]; rate 0.1250 kg/ha): 4.5
herbicidal rating, ECHORC ([5]; rate 0.0080 kg/ha): 4.0
herbicidal rating, ECHORC ([5]; rate 0.0320 kg/ha): 8.5
herbicidal rating, ECHORC ([5]; rate 0.1250 kg/ha): 9.0
Postemergence herbicidal rating, ECHCG ([6]; rate 0.0320 kg/ha): 4.0
Postemergence herbicidal rating, ECHCG ([6]; rate 0.0620 kg/ha): 4.0
Postemergence herbicidal rating, ECHCG ([6]; rate 0.1250 kg/ha): 4.0
Postemergence herbicidal rating, IPOHE ([7]; rate 0.0320 kg/ha): 9.0
Postemergence herbicidal rating, IPOHE ([7]; rate 0.0620 kg/ha): 9.0
Postemergence herbicidal rating, IPOHE ([7]; rate 0.1250 kg/ha): 9.0
CHEAL preemergence herbicidal rating ([8]; Rate 0.0620 kg/ha): 9.0
CHEAL preemergence herbicidal rating ([8]; Rate 0.1250 kg/ha): 9.0
CHEAL preemergence herbicidal rating ([8]; Rate 0.2500 kg/ha): 9.0
CASOB preemergence herbicidal rating ([9]; Rate 0.0620 kg/ha): 0.0
CASOB preemergence herbicidal rating ([9]; Rate 0.1250 kg/ha): 0.5
CASOB preemergence herbicidal rating ([9]; Rate 0.2500 kg/ha): 2.0
AMBEL preemergence herbicidal rating ([10]; Rate 0.0620 kg/ha): 2.0
AMBEL preemergence herbicidal rating ([10]; Rate 0.1250 kg/ha): 5.5
AMBEL preemergence herbicidal rating ([10]; Rate 0.2500 kg/ha): 7.5
Postemergence herbicidal rating, CHEAL ([11]; rate 0.0320 kg/ha): 7.0
Postemergence herbicidal rating, CHEAL ([11]; rate 0.0620 kg/ha): 9.0
Postemergence herbicidal rating, CHEAL ([11]; rate 0.1250 kg/ha): 9.0
Postemergence herbicidal rating, CASOB ([12]; rate 0.0320 kg/ha): 2.0
Postemergence herbicidal rating, CASOB ([12]; rate 0.0620 kg/ha): 4.0
Postemergence herbicidal rating, CASOB ([12]; rate 0.1250 kg/ha): 7.0
Postemergence herbicidal rating, AMBEL ([13]; rate 0.0320 kg/ha): 9.0
Postemergence herbicidal rating, AMBEL ([13]; rate 0.0620 kg/ha): 9.0
Postemergence herbicidal rating, AMBEL ([13]; rate 0.1250 kg/ha): 9.0
Postemergence herbicidal rating, ZEAMX (ZEAMX (Corn, Field); rate 0.0320 kg/ha): 5.0
Postemergence herbicidal rating, ZEAMX (ZEAMX (Corn, Field); rate 0.0620 kg/ha): 5.5
Postemergence herbicidal rating, ZEAMX (ZEAMX (Corn, Field); rate 0.1250 kg/ha): 5.5
ORYSAT preemergence herbicidal rating (ORYSAT (Rice, Tebonnet) [14]; Rate 0.0620 kg/ha): 0.0
ORYSAT preemergence herbicidal rating (ORYSAT (Rice, Tebonnet) [14]; Rate 0.1250 kg/ha): 0.5
ORYSAT preemergence herbicidal rating (ORYSAT (Rice, Tebonnet) [14]; Rate 0.2500 kg/ha): 3.5
herbicidal rating, CYPSE ([15]; rate 0.0080 kg/ha): 0.0
herbicidal rating, CYPSE ([15]; rate 0.0320 kg/ha): 4.5
herbicidal rating, CYPSE ([15]; rate 0.1250 kg/ha): 4.5
TRZAWR preemergence herbicidal rating ([16]; Rate 0.0620 kg/ha): 0.0
TRZAWR preemergence herbicidal rating ([16]; Rate 0.1250 kg/ha): 1.0
TRZAWR preemergence herbicidal rating ([16]; Rate 0.2500 kg/ha): 2.0
Postemergence herbicidal rating, ABUTH ([17]; rate 0.0320 kg/ha): 9.0
Postemergence herbicidal rating, ABUTH ([17]; rate 0.0620 kg/ha): 9.0
Postemergence herbicidal rating, ABUTH ([17]; rate 0.1250 kg/ha): 9.0
Postemergence herbicidal rating, ORYSAT (ORYSAT (Rice, Tebonnet) [18]; rate 0.0320 kg/ha): 4.0
Postemergence herbicidal rating, ORYSAT (ORYSAT (Rice, Tebonnet) [18]; rate 0.0620 kg/ha): 3.5
Postemergence herbicidal rating, ORYSAT (ORYSAT (Rice, Tebonnet) [18]; rate 0.1250 kg/ha): 4.5

COC(=O)COc1ccsc1-c1nsc2ccc(-n3c(=O)cc(C(F)(F)F)n(C)c3=O)cc12 [Compound 22, Methyl [(2-[5-[3,6-dihydro-3-methyl-2,6-dioxo-4-(trifluoromethyl)-1(2H)-pyrimidinyl]-1,2-benzisothiazol-3-yl]-3-thienyl]oxy]acetate]
herbicidal rating, SAGPY ([1]; rate 0.0080 kg/ha): 0.0
herbicidal rating, SAGPY ([1]; rate 0.0320 kg/ha): 0.0
herbicidal rating, SAGPY ([1]; rate 0.1250 kg/ha): 0.0
herbicidal rating, ORYSAT (rice tolerance) (ORYSAT (Rice, Tebonnet) [2]; rate 0.0080 kg/ha): 0.0
herbicidal rating, ORYSAT (rice tolerance) (ORYSAT (Rice, Tebonnet) [2]; rate 0.0320 kg/ha): 2.0
herbicidal rating, ORYSAT (rice tolerance) (ORYSAT (Rice, Tebonnet) [2]; rate 0.1250 kg/ha): 2.5
ABUTH preemergence herbicidal rating ([3]; Rate 0.0620 kg/ha): 1.0
ABUTH preemergence herbicidal rating ([3]; Rate 0.1250 kg/ha): 4.0
ABUTH preemergence herbicidal rating ([3]; Rate 0.2500 kg/ha): 5.0
Postemergence herbicidal rating, TRZAWR ([4]; rate 0.0320 kg/ha): 2.5
Postemergence herbicidal rating, TRZAWR ([4]; rate 0.0620 kg/ha): 3.5
Postemergence herbicidal rating, TRZAWR ([4]; rate 0.1250 kg/ha): 4.5
herbicidal rating, ECHORC ([5]; rate 0.0080 kg/ha): 0.0
herbicidal rating, ECHORC ([5]; rate 0.0320 kg/ha): 0.0
herbicidal rating, ECHORC ([5]; rate 0.1250 kg/ha): 5.0
Postemergence herbicidal rating, ECHCG ([6]; rate 0.0320 kg/ha): 0.0
Postemergence herbicidal rating, ECHCG ([6]; rate 0.0620 kg/ha): 2.0
Postemergence herbicidal rating, ECHCG ([6]; rate 0.1250 kg/ha): 6.0
Postemergence herbicidal rating, IPOHE ([7]; rate 0.0320 kg/ha): 4.0
Postemergence herbicidal rating, IPOHE ([7]; rate 0.0620 kg/ha): 4.0
Postemergence herbicidal rating, IPOHE ([7]; rate 0.1250 kg/ha): 6.0
CHEAL preemergence herbicidal rating ([8]; Rate 0.0620 kg/ha): 0.0
CHEAL preemergence herbicidal rating ([8]; Rate 0.1250 kg/ha): 3.0
CHEAL preemergence herbicidal rating ([8]; Rate 0.2500 kg/ha): 9.0
CASOB preemergence herbicidal rating ([9]; Rate 0.0620 kg/ha): 0.0
CASOB preemergence herbicidal rating ([9]; Rate 0.1250 kg/ha): 0.0
CASOB preemergence herbicidal rating ([9]; Rate 0.2500 kg/ha): 1.0
AMBEL preemergence herbicidal rating ([10]; Rate 0.0620 kg/ha): 0.0
AMBEL preemergence herbicidal rating ([10]; Rate 0.1250 kg/ha): 0.0
AMBEL preemergence herbicidal rating ([10]; Rate 0.2500 kg/ha): 2.0
Postemergence herbicidal rating, CHEAL ([11]; rate 0.0320 kg/ha): 1.0
Postemergence herbicidal rating, CHEAL ([11]; rate 0.0620 kg/ha): 4.0
Postemergence herbicidal rating, CHEAL ([11]; rate 0.1250 kg/ha): 4.0
Postemergence herbicidal rating, CASOB ([12]; rate 0.0320 kg/ha): 0.0
Postemergence herbicidal rating, CASOB ([12]; rate 0.0620 kg/ha): 0.0
Postemergence herbicidal rating, CASOB ([12]; rate 0.1250 kg/ha): 1.0
Postemergence herbicidal rating, AMBEL ([13]; rate 0.0320 kg/ha): 2.0
Postemergence herbicidal rating, AMBEL ([13]; rate 0.0620 kg/ha): 4.0
Postemergence herbicidal rating, AMBEL ([13]; rate 0.1250 kg/ha): 6.0
Postemergence herbicidal rating, ZEAMX (ZEAMX (Corn, Field); rate 0.0320 kg/ha): 4.5
Postemergence herbicidal rating, ZEAMX (ZEAMX (Corn, Field); rate 0.0620 kg/ha): 6.0
Postemergence herbicidal rating, ZEAMX (ZEAMX (Corn, Field); rate 0.1250 kg/ha): 7.0
ORYSAT preemergence herbicidal rating (ORYSAT (Rice, Tebonnet) [14]; Rate 0.0620 kg/ha): 0.0
ORYSAT preemergence herbicidal rating (ORYSAT (Rice, Tebonnet) [14]; Rate 0.1250 kg/ha): 0.0
ORYSAT preemergence herbicidal rating (ORYSAT (Rice, Tebonnet) [14]; Rate 0.2500 kg/ha): 0.0
herbicidal rating, CYPSE ([15]; rate 0.0320 kg/ha): 0.0
herbicidal rating, CYPSE ([15]; rate 0.1250 kg/ha): 0.0
TRZAWR preemergence herbicidal rating ([16]; Rate 0.0620 kg/ha): 0.0
TRZAWR preemergence herbicidal rating ([16]; Rate 0.1250 kg/ha): 0.0
TRZAWR preemergence herbicidal rating ([16]; Rate 0.2500 kg/ha): 0.0
Postemergence herbicidal rating, ABUTH ([17]; rate 0.0320 kg/ha): 5.0
Postemergence herbicidal rating, ABUTH ([17]; rate 0.0620 kg/ha): 4.0
Postemergence herbicidal rating, ABUTH ([17]; rate 0.1250 kg/ha): 6.0
Postemergence herbicidal rating, ORYSAT (ORYSAT (Rice, Tebonnet) [18]; rate 0.0320 kg/ha): 3.0
Postemergence herbicidal rating, ORYSAT (ORYSAT (Rice, Tebonnet) [18]; rate 0.0620 kg/ha): 3.5
Postemergence herbicidal rating, ORYSAT (ORYSAT (Rice, Tebonnet) [18]; rate 0.1250 kg/ha): 4.5
